Values quoted from earlier work, collected in patent publication US8367605B2, “Copolymer-1 improvements in compositions of copolymers” (Yeda Research and Development Co. Ltd., priority 1994, dated 2013).

Assays:
[1] = tested on: patients with the exacerbating-remitting form of multiple sclerosis; conditions: daily injections; N. Engl. J. Med. [1987]317:408
[2] = tested on: experimental autoimmune encephalomyelitis (EAE); conditions: Eur. J. Immunol. [1971]1:242; U.S. Pat. No. 3,849,550

copolymer-1
disability status versus control patients [1]: smaller increases in their disability status | exacerbations versus control patients [1]: fewer exacerbations | effect on EAE [2]: suppress EAE
